Data reported in patent US20250352537A1, “PHARMACEUTICAL COMPOSITIONS OF TRICYCLIC AKR1C3 DEPENDENT KARS INHIBITOR AND METHODS FOR MAKING SAME” (NOVARTIS AG, priority 2022, published 2025).

Columns and labels:
Format in all cases: physicochemical
[1] = Hot melt extrusion (HME) thermal stability; settings: extrusion of compound-polymer mixture at temperatures in excess of 160° C.
Source text: A holt melt extrusion (HME) approach was also attempted.

[2] = Supersaturation / desupersaturation of DMSO solution in FaSSIF-V1; settings: FaSSIF-V1, 37° C.
Experimental: FIG. 1 is a an illustration of Compound (I) desupersaturation profiles in FaSSIF-V1 when added as DMSO solution at drug loads from 100 to 2000 ppmw
The supersaturation potential of Compound (1) was studied by mixing drug dissolved in 1 mL DMSO into 99 mL FaSSIF-V1 stirred at 37° C. (FIG. 1). At higher drug loads of 500, 1000 or 2000 ppmw (or […]) Compound (1) precipitated practically instantaneously and attained a constant steady state concentration of approx. 20 μg/mL or below within 5 minutes.. At the 90 min final sampling the solids were confirmed to be crystalline Compound (1) by XRPD. At lower drug loads, supersaturation was maintained longer, e.g. approx. 110 μg/mL drug dissolved at 5 min at 200 ppmw drug load and approx. 70 μg/mL drug dissolved till 20 min at 100 ppmw drug load. Situation after desupersaturation was similar as described for higher drug loads.

[3] = Initial stability evaluation of lyophilized solid dispersions (mDSC, UPLC); settings: initial purity of Compound (I) 99.3%
Experimental: The following example illustrates the initial feasibility assessment of an amorphous solid dispersion formulation. An amorphous solid dispersion (ASD) was initially evaluated as a potential formulation for Compound (1). Solid dispersion screening was performed by lyophilization of solid Compound (1) with a polymer. Miscibility trials of Compound (1) were performed with Kollidon® VA64, HPMC-AS-LF, Eudragit® L100-55, and HPMC 603, by conducting a DSC measurement of the lyophilized material to determine if the material was amorphous or crystalline. […] Kollidon® VA64 at both 50% and 40% drug loading recrystallized after 5 weeks. HPMC-AS-LF and Eudragit® L100-55 remained amorphous under stressed conditions. However, HPMC-AS-LF and Eudragit® L100-55 both have significant impurities after 5 weeks until stressed conditions, according to UPLC analysis.

- stability on hot melt extrusion [1]: thermal degradation
- drug dissolved ([2]; at 5 min at 200 ppmw drug load): approx. 110 μg/mL
- steady state concentration ([2]; drug loads of 500, 1000 or 2000 ppmw, within 5 minutes): ≤ 20 µg/mL
- supersaturation potential ([2]; overall): rather poorly supersaturating
- drug dissolved ([2]; till 20 min at 100 ppmw drug load): approx. 70 μg/mL
- UPLC (%) ([3]; 3 weeks 50° C./75% RH): 99.09%
- UPLC (%) ([3]; 5 weeks 50° C./75% RH): 99.05%
SMILES: O=C1CC2(CCN(C(=O)NCc3ccc(F)cc3)CC2)Nc2ccc(F)cc21 [Compound (I), 6′-fluoro-N-(4-fluorobenzyl)-4′-oxo-3′,4′-dihydro-1′H-spiro[piperidine-4,2′-quinoline]-1-carboxamide]
